# pKd: −log10 of the molar value. Like-named read-outs stand apart in the source and are kept apart here.
# Tests used:
# PDIA3 [1] = target: T1, PDIA3 (Homo sapiens, UniProt P30101); conditions: cited from earlier work
# T1 construct: made in house; host or cells: E. coli BL21 (vector pET21)
# T1 sequence (P30101 25-505): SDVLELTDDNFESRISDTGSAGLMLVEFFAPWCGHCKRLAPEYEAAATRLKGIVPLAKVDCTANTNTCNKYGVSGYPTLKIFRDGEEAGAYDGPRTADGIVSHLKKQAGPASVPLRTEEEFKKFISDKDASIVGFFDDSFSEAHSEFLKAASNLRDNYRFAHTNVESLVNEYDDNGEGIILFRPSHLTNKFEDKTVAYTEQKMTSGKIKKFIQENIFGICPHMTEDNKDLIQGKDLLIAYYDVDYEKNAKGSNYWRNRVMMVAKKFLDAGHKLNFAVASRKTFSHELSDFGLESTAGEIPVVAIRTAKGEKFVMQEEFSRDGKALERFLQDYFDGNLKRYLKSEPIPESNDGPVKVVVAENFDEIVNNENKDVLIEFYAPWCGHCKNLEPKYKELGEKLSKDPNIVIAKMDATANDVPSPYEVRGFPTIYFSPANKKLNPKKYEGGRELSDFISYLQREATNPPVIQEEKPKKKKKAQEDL
# PDIA3 [2] = target: T1, PDIA3; parameters: method as in Trnková et al. [30]; conditions: Figure 8, unit inferred; ref Trnková et al. [30]; read-out: Dissociation constant (Kd); cited from earlier work
# PDIA3 [3] = target: T1, PDIA3; conditions: cited from earlier work; remark: listed apart in the source
# PDIA3 [4] = target: T1, PDIA3; experiment: Disulfide reductase activity with DiE-GSSG fluorogenic probe; assay type: biochemical; conditions: DiE-GSSG substrate; for Inhibition of disulfide reductase (redox) activity: 20 μM flavonoid (Figure 7)
# Procedure: Disulfide reductase activity of ERp57 was monitored by sensitive fluorescent assay using dieosin glutathione disulfide (DiE-GSSG) as fluorogenic probe. DiE-GSSG was synthesized by the reaction of eosin isothiocyanate with oxidized glutathione (GSSG) according to the method of Raturi and Mutus with some modifications. DiE-GSSG concentration was determined spectrophotometrically (ℇ 525 = 88,000 M^-1 cm^−1). Disulfide reductase activity was assayed in a reaction buffer containing 2 mM EDTA, 150 nM DiE-GSSG, and 5 μM DTT in PBS. A 20 μl aliquot of a stock solution of PDIA3 (1 μM) was added to the reaction mixture and DiE-GSSG reduction was monitored at 545 nm with excitation at 520 nm, at 25°C with continuous stirring. Reductase activity was calculated as the initial velocity in fluorescence increase. To test the effect of flavonoids on PDIA3 activity, the protein stock solution was previously incubated for 15 minutes at room temperature with different concentrations of each flavonoid and then a 20 μl aliquot subjected to assay in a reaction buffer containing the same concentration of the flavonoid.
# Fluorescence quenching constant (K SV) values were given as means ± standard deviation and values of disulfide reductase activity were expressed in % of control sample ± relative standard deviation. All measurements were performed at least three times. Dunnett's test was used to compare the obtained reductase activity data with the activity of the untreated protein and a p value of <0.01 was considered as statistically significant.
# PDIA3 [5] = target: T1, PDIA3; experiment: DNA binding activity by EMSA; assay type: biochemical; conditions: flavonoid 0 to 50 μM
# Procedure: EMSA assay was performed using a 79-bp […] obtained by PCR as previously described. Amplified DNA was end-labeled by using 5-fluorescein-modified primers. 10 ng of DNA fragment was incubated with 1 μg of PDIA3 or a′ domain, in presence of increasing concentration of flavonoids (from 0 to 50 μM). Controls were performed using DNA alone and in the presence of each flavonoid. All tests were performed in 20 μl mixtures containing 20 mM Tris-HCl, pH 7.5, 50 mM NaCl, and 10% (v/v) glycerol. Samples were incubated for 1 hour at 25°C and then resolved on 5% polyacrylamide gels in 0,25% TBE buffer (22.5 mM Tris-borate, 5 mM EDTA, pH 8.3) at 150 V. Gel images were recorded using a ChemiDoc MP Imaging System (BioRad) equipped with an epi-blue excitation lamp and a 520 nm emission filter.
# PDIA3 [6] = target: T1, PDIA3; experiment: Fluorescence quenching titration of PDIA3 intrinsic fluorescence; assay type: binding
# Procedure: Quantitative analysis of the interaction between individual flavonoids and PDIA3 was performed by fluorimetric titration. […] Briefly, solution of PDIA3 (0.5 μM) or a and a′ domains (1 μM) in phosphate buffered saline (PBS) containing DTT 0.1 mM and EDTA 0.2 mM were titrated in quartz cuvette by stepwise additions, at 5 min time intervals, of individual flavonoid solution (1 mM in PBS/ethanol 50 : 50 v/v freshly prepared from a 20 mM stock solution in DMSO). […] To minimize the inner-filter effect we limited the highest concentration reached in the titration test up to 10 μM. All experiments were carried out at 25°C. Each spectrum was the mean of three repeated scans. Fluorescence spectra of appropriate blanks (flavonoids without proteins) were recorded under the same experimental conditions and subtracted from the corresponding flavonoid-protein system to correct the fluorescence background.
# Quenching analysis was performed on PDIA3 (0.5 μM), in the reduced form, by adding stepwise increasing concentration of each molecule and recording the protein fluorescence spectra. For some flavonoids the analysis was extended to isolate a′ domain (1 μM), always in the reduced form. […] For each ligand molecule the Stern-Volmer quenching constant was obtained by linear regression of plots of F 0/F versus [L].
# The Stern-Volmer quenching constant may be expressed as K SV = K q τ 0, where K q is the quencher rate coefficient and τ 0 is the average lifetime of the emissive excited state of the protein in the absence of the quencher.
# The number of binding sites (n) and the binding constant (K b) were obtained by plotting log((F 0 − F)/F) versus log(1/([L t] − n(F 0 − F)[P t]/F 0)) using the reiterative calculation process described by Sun et al., assuming a similar affinity for each binding site.
# PDIA3 [7] = target: T1, PDIA3; experiment: Differential scanning fluorimetry (thermal stability, SYPRO Orange); assay type: binding; conditions: 50 μM flavonoid, reduced PDIA3 1 μM
# Procedure: Protein stability was tested by the fluorescence-based thermal stability assay or differential scanning fluorimetry (DSF) developed by Pantoliano and coworkers. DSF records the fluorescence emission signal from the binding of a dye (SYPRO orange) to the exposed hydrophobic patches upon protein unfolding. Fluorescence measurements were performed using a CFX96 Connect RT-PCR instrument (BioRad). 18 μl aliquots of protein solution (1 μM), freshly diluted in Tris Buffered saline (50 mM TrisHCl, pH 8.0, 150 mM NaCl) containing 0.1 mM DTT, 0.2 mM EDTA, and 1 : 1000 dilution of SYPRO Orange (50 mM stock solution in DMSO), were distributed in a 96-well plate. Sample wells were addition of increasing concentration (up to 50 μM) of individual flavonoid by adding 2 μl of 10-fold concentrated stock solutions freshly prepared. As control, the protein solution was added with 2 μl of the dilution buffer. A melting point analysis was recorded increasing the temperature from 20 to 95°C with an increment of 0.5°C and reading, at each temperature, the fluorescence in fluorescence resonance energy transfer mode (FRET). Each measure was the average of three sample wells reading and each DSF experiment was repeated at least three times. To calculate T m values, DSF data from the melting curve were exported and fitted to Boltzman equation using GraphPad software. Effect of flavonoids was evaluated comparing the T m values in presence and absence of each molecule.
# PDIA3 [8] = target: PDIA3; parameters: method as in PMID 24530445; conditions: cited from earlier work
compound,measurement,setting,value
"O=C(OC1Cc2c(O)cc(O)cc2OC1c1cc(O)c(O)c(O)c1)c1cc(O)c(O)c(O)c1 (stereo not shown) [Epigallocatechin gallate, epigallocatechin gallate]",Effect on DNA binding,PDIA3 [1]; ref Trnková et al. [30],Inhibition
same,pKd,PDIA3 [2],4.34
same,Inhibition of redox activity (%),"PDIA3 [3]; Figure 8, ref Trnková et al. [30]",21%
"O=c1c(O)c(-c2ccc(O)c(O)c2)oc2cc(O)cc(O)c12 [Quercetin, quercetin]",Inhibition of disulfide reductase (redox) activity,PDIA3 [4],18%
same,Inhibition of disulfide reductase (redox) activity,PDIA3 [4]; listed as quercetin,approximately 20%
same,Effect on disulfide reductase activity (in words),PDIA3 [4],some inhibitory effect
same,Effect on DNA binding activity of PDIA3,PDIA3 [5],None
same,Stern-Volmer constant (K SV),"PDIA3 [6]; 0.5∗10^−6 M PDIA3 in reduced conditions, pH 7.4, 25°C, flavonoid 0 to 10∗10^−6 M, mean and standard deviation",46226 ± 1406 M⁻¹
same,pKd,"PDIA3 [6]; Figure 8, no unit printed in the picture, read-out: Dissociation constant (Kd)",4.59
same,bimolecular quenching rate constant (K q),"PDIA3 [6]; K SV = K q τ0 with τ0 of the order of 10^−8 s, reduced PDIA3, pH 7.4, 25°C",4.62e+12 M⁻¹ s⁻¹
same,pKd,"PDIA3 [6]; K d = 1/K b, reduced PDIA3, pH 7.4, 25°C, read-out: dissociation constant (K d)",4.59
same,binding constant (K b),"PDIA3 [6]; equation of Bi et al., reiterative calculation of Sun et al., reduced PDIA3, pH 7.4, 25°C",39000 M⁻¹
same,Increase in melting temperature (T m) of PDIA3,PDIA3 [7],increased more than three degrees
COc1cc(C2Oc3cc([C@H]4Oc5cc(O)cc(O)c5C(=O)[C@@H]4O)ccc3OC2CO)ccc1O (stereo partly shown) [silibinin],Effect on DNA binding capability of PDIA3,PDIA3 [1],no effect
same,dissociation constant,PDIA3 [8],within micromolar range
same,Effect on redox activity of PDIA3,PDIA3 [3],no effect
